{
  "source": "patent US10597696B2",
  "about": "“Detection of Niemann-Pick disease comprising detection of lysozyme and cathepsins” (UNIVERSITY OF NOTRE DAME DU LAC, priority 2013, dated 2020)",
  "key": {"NPC patients [1]": {"tested_on": "NPC patients", "assay": "Plasma lysozyme level in Miglustat-treated NPC patients", "format": "in vivo, human", "settings": "Miglustat-treated NPC samples vs untreated NPC and healthy controls", "source_text": "(§1) A major hurdle is that inflammatory products of cerebral disease are not easily detected in blood. Inflammation in multiple organs and heterogeneity in disease present additional challenges in distinguishing the extent to which a blood based marker reflects disease in brain or other afflicted organs. We utilized murine models of the monogenetic disorder Niemann Pick Type C (NPC) that present aggressive forms of cerebral and liver inflammatory disease to identify secretory biomarkers for neuroinflammation. […] We utilized 2-hydroxypropyl-beta-cyclodextrin (HPβCD; an emerging therapeutic) administered intraperitoneally in mice, which abrogates inflammatory pathology in the liver but has limited effect on the brain. By analyzing the corresponding effects on inflammatory plasma proteins, we identified cathepsin S as a lead indicator of liver disease. In contrast lysozyme was a marker of both brain and liver disease. The study was extended on human samples. The level of lysozyme and cathepsin S were determined in the plasma samples from healthy individuals (age and gender matched), untreated NPC patients and Miglustat (also known as Zavesca) treated NPC patients. […] The plasma concentration of these two markers in untreated and Miglustat treated NPC samples when analyzed together yielded a composite score to assess extent of neurodegeneration. […]"}, "NPC patients [2]": {"tested_on": "NPC patients", "assay": "Plasma cathepsin S level in Miglustat-treated NPC patients", "format": "in vivo, human", "settings": "patients treated with Miglustat vs untreated NPC patients", "source_text": "as §1"}},
  "data": [
    {"smiles": "CCCCN1C[C@H](O)[C@@H](O)[C@H](O)[C@H]1CO", "note": "[Miglustat]", "values": [
      {"measurement": "plasma lysozyme level", "setting": "NPC patients [1]", "result": "reduced compared to untreated NPC patients and were equivalent to healthy controls"},
      {"measurement": "plasma cathepsin S", "setting": "NPC patients [2]", "result": "further elevated"}
    ]}
  ]
}
